Laboratory results as given in patent publication US10822376B2, “Biologically active peptides” (Baxalta Incorporated, priority 2008, dated 2020).

How the values were obtained:
HERG channel = HERG channel (Homo sapiens, UniProt Q12809); type: cell-based
Description: It was tested at 10 μM and the data were compared with historical values determined at Cerep.

[1] = system: Factor X deficient human plasma; experiment: DDPTGA (reagent B) in FX depleted plasma; conditions: compounds at 50 μM and 80, 90 or 100 μM
Description: (§1) The Defined Dual-Pathway Thrombin Generation Assay is performed as described below, using a commercial test kit (Technothrombin TGA, Technoclone GmbH, Vienna, Austria). […] USA) are incubated four minutes at 37° C. Preferably, Reagent C high is used. Thrombin generation is started by the addition of 40 μl of one of several types of human plasma (37° C.). […] By deviating the original fluorescence data the amount of generated thrombin is calculated from a standard curve constructed using a concentration range of thrombin.
(§2) The in vitro thrombin generation assay based on the cleavage of Z-GGR-AMC to release the fluorophore AMC, described in the specific description, i.e. the Defined Dual-Pathway Thrombin Generation Assay was used to characterise the effect of the compounds in several depleted human plasmas. […] 10 μl peptide dilution, 40 μl TGA substrate and 40 μl plasma were used as described in the specific description.
(§3) The plasmas used in the experiments were fresh frozen and were deficient in Factor V, Factor VII/VIIa, Factor VIII, Factor X or Factor XI (George King Bio-Medical, Inc.). Residual coagulation factor levels of deficient plasmas were specified as less than 1%.
(§4) For each depleted plasma used in the experiments, compounds were tested at two concentrations, namely 50 μM and 80, 90 or 100 μM. A negative control was used, in which no test compound was included.

Acute toxicology in mice = type: in vivo, mouse; conditions: C57BL/6, mouse, in vivo, iv; 60 minutes following administration; read-out: Max dose within toxicity category: No detected toxicity
Description: Toxicology studies involved monitoring of attitude changes due to toxic effects immediately after application and twice daily; monitoring of body weight; histopathology of brain, heart, kidney, liver, lung. Experiments were performed in C57131/6 mice.
C57BI/6 mice weighing 18-20 g were administered with compounds in a suitable vehicle i.v. in the tail vein or i.p. or s.c at 10 ml/kg. Quantities of the compounds administered were in the range of 0.075 to 125 mg/kg (i.v.), 15-125 mg/kg (i.p.) and 125 mg/kg (s.c.). There were four mice per group. Attitude changes due to toxic effects were monitored immediately after administration of the compound and for 60 minutes thereafter. Body weight was monitored for five days after administration. At day 5 after administration, mice were culled and autopsy performed. Brain, heart, kidney, liver, lung and spleen were biopsied.
In the above table, the maximum dose tested giving rise to no detected toxicity, some toxicity or severe toxicity over the period of 60 minutes following administration is reported. “No detected toxicity” indicates no acute toxic observations.

[2] = system: Factor VIII deficient human plasma; experiment: DDPTGA (reagent B) in FVIII depleted plasma; type: biochemical; conditions: compounds at 50 μM and 80, 90 or 100 μM; also: key: '+' means stimulates; '−' means does not stimulate
Text: Preferably, Reagent C high is used.

FVIII inhibited plasma = experiment: Defined Dual-Pathway Thrombin Generation Assay (DDPTGA, reagent C high), FVIII inhibited plasma; type: biochemical, human; conditions: for Peak IIa FEIBA EU / Peak IIa FVIIa EU / Peak Time FEIBA EU / Peak Time FVIIa EU: FVIII inhibited plasma
[3] = system: Factor V deficient human plasma; experiment: DDPTGA (reagent B) in FV depleted plasma; conditions: compounds at 50 μM and 80, 90 or 100 μM
Description: as §1, §2, §3, §4

[4] = system: Factor VII/VIIa deficient human plasma; experiment: DDPTGA (reagent B) in FVII depleted plasma; conditions: compounds at 50 μM and 80, 90 or 100 μM
Description: as §1, §2, §3, §4

[5] = system: Factor XI deficient human plasma; experiment: DDPTGA (reagent B) in FXI depleted plasma; conditions: compounds at 50 μM and 80, 90 or 100 μM
Description: as §1, §2, §3, §4

FVIII deficient plasma = experiment: Defined Dual-Pathway Thrombin Generation Assay (DDPTGA, reagent C high), FVIII deficient plasma; type: biochemical, human; conditions: FVIII deficient plasma
[6] = system: human FVIII inhibited plasma; experiment: Defined Intrinsic Thrombin Generation Assay (DITGA, triggered by FXIa and phospholipids); type: biochemical

Chain of HERG channel (Q12809 whole entry): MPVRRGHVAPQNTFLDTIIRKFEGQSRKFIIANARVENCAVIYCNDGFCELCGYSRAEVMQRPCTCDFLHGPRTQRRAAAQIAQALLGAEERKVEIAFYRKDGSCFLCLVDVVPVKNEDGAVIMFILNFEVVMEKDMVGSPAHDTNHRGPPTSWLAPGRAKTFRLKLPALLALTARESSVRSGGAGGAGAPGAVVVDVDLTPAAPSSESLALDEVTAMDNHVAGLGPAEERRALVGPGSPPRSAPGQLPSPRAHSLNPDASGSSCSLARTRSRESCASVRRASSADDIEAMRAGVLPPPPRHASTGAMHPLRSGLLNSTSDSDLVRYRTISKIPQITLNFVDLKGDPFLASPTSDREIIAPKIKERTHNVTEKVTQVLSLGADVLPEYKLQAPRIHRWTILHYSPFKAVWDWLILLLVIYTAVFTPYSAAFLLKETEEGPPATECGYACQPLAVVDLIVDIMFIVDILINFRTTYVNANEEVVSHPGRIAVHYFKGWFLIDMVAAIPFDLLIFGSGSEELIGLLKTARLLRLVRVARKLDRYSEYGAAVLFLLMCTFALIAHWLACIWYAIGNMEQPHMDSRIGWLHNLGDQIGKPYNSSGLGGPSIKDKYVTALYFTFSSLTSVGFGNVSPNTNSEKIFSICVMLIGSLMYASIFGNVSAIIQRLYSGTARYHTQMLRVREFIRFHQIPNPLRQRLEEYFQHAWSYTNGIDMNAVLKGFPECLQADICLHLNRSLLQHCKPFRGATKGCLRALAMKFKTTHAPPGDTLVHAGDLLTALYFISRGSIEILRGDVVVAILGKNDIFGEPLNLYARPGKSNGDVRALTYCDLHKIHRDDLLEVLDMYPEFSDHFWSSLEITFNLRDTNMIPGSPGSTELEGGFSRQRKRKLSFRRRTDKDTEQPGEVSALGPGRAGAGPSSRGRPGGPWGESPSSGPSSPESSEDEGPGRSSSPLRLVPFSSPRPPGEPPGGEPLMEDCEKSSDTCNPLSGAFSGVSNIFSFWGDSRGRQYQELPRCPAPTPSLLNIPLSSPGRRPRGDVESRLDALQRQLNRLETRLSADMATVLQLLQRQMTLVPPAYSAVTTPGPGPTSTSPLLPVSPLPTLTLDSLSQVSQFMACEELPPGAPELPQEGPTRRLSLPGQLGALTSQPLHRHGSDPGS
Description for physchem: Aqueous solubility is measured in PBS at pH 7.4 either in an assay provided by Cerep (France, Catalog ref. 900-11a) or according to the following protocol. The aim of this procedure is to determine the solubility of a drug candidate (analyte) in a buffer, by estimating the saturation concentration of the candidate in the buffer using HPLC. A known concentration of the candidate in an organic solvent is used as a standard. A stock solution of the test compound in DMSO must be prepared as the initial step. […] DMSO stock-solutions are diluted to a final concentration of 50 μM with DMSO (100% reference-solution) and buffer (test-solution) to provide a minimum volume of 500 μL of each. Both solutions are shaken at 25° C. at 950 rpm in an Eppendorf “thermomixer comfort” for at least 60 min. The suspension is centrifuged at 22 330 g for at least two min and 100 μL of the supernatant is transferred into polypropylene-inserts placed in glass vials and closed by snap-ring caps. Alternatively the solutions can be prepared in microtiter plates with half of the previously described starting solvent volume. For the determination of the solubility all samples are analyzed by HPLC in triplicate. Injection volume is at least 10 μL. The obtained data are analyzed by “Chemstation-software” (Agilent, Waldbronn, Germany). The peaks from the analyses of the organic solutions are integrated and the arithmetic mean is reported as “AUC 1” (reference area of known amount injected at the HPLC). […] The ratio of the mean “AUC 2” and “AUC 1” is calculated and thus the percentage of the dissolved amount of compound in buffer is obtained and solubility can be reported in μM.

**Q.** For H-ERMEFDVWDLYFEIVW-NH2 [Peptide A09], which “HERG inhibition Rb+ efflux (% Inhibition at 10 μM)” value (HERG channel) is on record?
**A.** −1.6%

**Q.** What about the “Stimulation of thrombin generation” value [1] of the same substance?
**A.** +

**Q.** And the NOAEL at 1 h (Acute toxicology in mice)?
**A.** 15 mg/kg

**Q.** And the “Stimulation of thrombin generation” value [2]?
**A.** +

**Q.** What about the “Peak IIa FEIBA EU” value (FVIII inhibited plasma; peptide 25 μM) of the same substance?
**A.** BLS (BLS = below lowest standard.)

**Q.** And the “Peak IIa FVIIa EU” value (FVIII inhibited plasma; peptide 25 μM)?
**A.** BLS (BLS = below lowest standard.)

**Q.** What about the “Peak Time FEIBA EU” value (FVIII inhibited plasma; peptide 25 μM) of the same substance?
**A.** 7.9 mU/ml

**Q.** And the “Peak Time FVIIa EU” value (FVIII inhibited plasma; peptide 25 μM)?
**A.** 0.2 nM

**Q.** What about the “Peak IIa FEIBA EU” value (FVIII inhibited plasma; peptide 50 μM) of the same substance?
**A.** 8.6 mU/ml

**Q.** What about the “Peak IIa FVIIa EU” value (FVIII inhibited plasma; peptide 50 μM) of the same substance?
**A.** BLS (BLS = below lowest standard.)

**Q.** And the “Peak Time FEIBA EU” value (FVIII inhibited plasma; peptide 50 μM)?
**A.** BLS (BLS = below lowest standard.)

**Q.** What about the “Peak Time FVIIa EU” value (FVIII inhibited plasma; peptide 50 μM) of the same substance?
**A.** BLS (BLS = below lowest standard.)

**Q.** And the “Activity in the Defined Dual-Pathway Thrombin Generation Assay” value (FVIII inhibited plasma; summary, FVIII inhibited or deficient plasma)?
**A.** possess activity

**Q.** And the “Stimulation of thrombin generation” value [3]?
**A.** −

**Q.** And the “Stimulation of thrombin generation” value [4]?
**A.** +

**Q.** What about the “Stimulation of thrombin generation” value [5] of the same substance?
**A.** +

**Q.** What about the solubility kinetic (physchem; pH 7.4) of the same substance?
**A.** 63 µM

**Q.** And the solubility (physchem; pH 7.4, Aqueous solubility)?
**A.** 63 µM

**Q.** What about the solubility (physchem; pH 7.4, Solubility in PBS pH 7.4) of the same substance?
**A.** ≥ 25 µM

**Q.** And the “Peak IIa FVIII EU” value (FVIII deficient plasma; peptide 25 μM)?
**A.** BLS (BLS = below lowest standard.)

**Q.** What about the “Peak Time FVIII EU” value (FVIII deficient plasma; peptide 25 μM) of the same substance?
**A.** 15.6 mU/ml

**Q.** And the “Peak IIa FVIII EU” value (FVIII deficient plasma; peptide 50 μM)?
**A.** BLS (BLS = below lowest standard.)

**Q.** And the “Peak Time FVIII EU” value (FVIII deficient plasma; peptide 50 μM)?
**A.** 27.2 mU/ml

**Q.** And the “Thrombin peak time given as FEIBA equivalent activity” value (shortened to “Thrombin peak time given”) ([6]; peptide 6.25 μM)?
**A.** 600 mU/ml

**Q.** And the “Thrombin peak time given” value ([6]; peptide 12.5 μM)?
**A.** 742 mU/ml

**Q.** And the “Thrombin peak time given” value ([6]; peptide 25 μM)?
**A.** 896 mU/ml

**Q.** What about the “Thrombin peak time given” value ([6]; peptide 50 μM) of the same substance?
**A.** 1170 mU/ml

**Q.** And the “Thrombin peak time given” value ([6]; peptide 100 μM)?
**A.** 1365 mU/ml

**Q.** And the “Activity in the Defined Intrinsic Thrombin Generation Assay” value ([6]; summary)?
**A.** possess activity
